Positions count from the first letter of the chain named.
Columns and labels:
GluRδ2^Lc E531A = biological target: T1, GluRδ2^Lc E531A (Rattus norvegicus, UniProt Q63226, A654T/E531A); assay: Two-electrode voltage-clamp recordings in Xenopus oocytes, GluRδ2^Lc E531A; format: cell-based
T1 sequence (Q63226 24-1007 E531A/A654T): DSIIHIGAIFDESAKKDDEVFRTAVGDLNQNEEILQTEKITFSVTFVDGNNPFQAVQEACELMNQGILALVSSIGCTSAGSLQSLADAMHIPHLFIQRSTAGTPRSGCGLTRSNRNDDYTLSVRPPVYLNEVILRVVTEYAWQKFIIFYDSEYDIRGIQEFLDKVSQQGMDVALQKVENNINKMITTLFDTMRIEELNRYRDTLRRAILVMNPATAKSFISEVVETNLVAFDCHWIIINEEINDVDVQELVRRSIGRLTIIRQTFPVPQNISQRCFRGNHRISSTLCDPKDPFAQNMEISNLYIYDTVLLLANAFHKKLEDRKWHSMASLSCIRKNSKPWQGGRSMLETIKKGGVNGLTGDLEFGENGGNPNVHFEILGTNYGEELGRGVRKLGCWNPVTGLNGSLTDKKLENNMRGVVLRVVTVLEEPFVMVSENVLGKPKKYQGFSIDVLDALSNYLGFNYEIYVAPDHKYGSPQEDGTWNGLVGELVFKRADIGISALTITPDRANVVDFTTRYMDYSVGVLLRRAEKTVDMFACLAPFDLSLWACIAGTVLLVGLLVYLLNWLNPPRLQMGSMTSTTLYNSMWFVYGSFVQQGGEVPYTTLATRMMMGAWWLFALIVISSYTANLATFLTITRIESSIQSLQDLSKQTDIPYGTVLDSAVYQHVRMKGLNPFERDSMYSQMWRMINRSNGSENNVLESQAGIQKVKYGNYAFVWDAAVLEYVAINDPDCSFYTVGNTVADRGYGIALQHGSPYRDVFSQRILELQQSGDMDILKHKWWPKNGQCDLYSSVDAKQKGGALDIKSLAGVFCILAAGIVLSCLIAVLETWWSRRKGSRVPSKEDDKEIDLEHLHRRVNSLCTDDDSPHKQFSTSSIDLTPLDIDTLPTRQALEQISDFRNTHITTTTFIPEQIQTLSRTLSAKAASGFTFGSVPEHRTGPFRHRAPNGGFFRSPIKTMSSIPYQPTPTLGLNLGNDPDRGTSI

[1] = biological target: T2, GluRδ2^Wt P528C+L789C+C811S (Rattus norvegicus, UniProt Q63226, C811S/L789C/P528C); format: cell-based; details: data not shown
T2 sequence (Q63226 24-1007 P528C/L789C/C811S): T1 sequence (Q63226 24-1007 E531A/A654T) with P505C, A508E, T631A, L766C, C788S

GluRδ2^Wt = biological target: T3, GluRδ2^Wt (Rattus norvegicus, UniProt Q63226); details: ref Naur et al., 2007; cited from earlier work
T3 sequence (Q63226 24-1007): T1 sequence (Q63226 24-1007 E531A/A654T) with A508E, T631A

[Ca+2] [Ca^2+, calcium]
Ca^2+ potentiation (relative to baseline) (GluRδ2^Lc E531A; 3 mM Ca^2+, ± SEM): 1.6 ± 0.08 fold

N[C@H](CO)C(=O)O [D-serine]
response to D-serine [1]: Neither the C811S mutation nor the triple P528C+L789C+C811S mutation resulted in measurable responses
activation of currents at recombinant GluRδ2^Wt by D-serine (GluRδ2^Wt): fails to activate currents
D-serine + 0 mM Ca^2+ nH (GluRδ2^Lc E531A; Hill slope, 0 mM Ca^2+): 1.1
D-serine + 3 mM Ca^2+ nH (GluRδ2^Lc E531A; Hill slope, 3 mM Ca^2+): 1.9

Source: publication PMC2806602 (The Journal of neuroscience : the official journal of the …, 2009)
